Several values for one entry are separate records, joined by “and”; a condition that tells them apart may be missing. Equal entries are not always repeated. Toxic doses and inconclusive results are not listed.
System: P388 leukemia ip, CD2F1 mice, survival T/C
Test: NCI In Vivo Anticancer Drug Screen. Data for tumor model P388 Leukemia (intraperitoneal) in CD2F1 (CDF1) mice
Settings: endpoint: median survival time, higher = longer survival
Outline: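 Mice carrying the transplanted tumor received test compound or vehicle. Survival was recorded in each group, and the value is the treated-group measurement divided by that of the vehicle-treated control group.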

[1] = dose: 50.0 mg/kg/injection, schedule: Q01DX005 (ip), vehicle: saline with Tween-80
[2] = dose: 100.0 mg/kg/injection, schedule: Q01DX005 (ip), vehicle: saline with Tween-80
[3] = dose: 50.0 mg/kg/injection, schedule: Q01DX009 (ip), vehicle: Klucel (hydroxypropylcellulose) (HPC)
[4] = dose: 100.0 mg/kg/injection, schedule: Q01DX009 (ip), vehicle: Klucel (hydroxypropylcellulose) (HPC)
[5] = dose: 200.0 mg/kg/injection, schedule: Q01DX009 (ip), vehicle: Klucel (hydroxypropylcellulose) (HPC)
[6] = dose: 50.0 mg/kg/injection, schedule: Q01DX005 (ip), vehicle: Klucel (hydroxypropylcellulose) (HPC)
[7] = dose: 100.0 mg/kg/injection, schedule: Q01DX005 (ip), vehicle: Klucel (hydroxypropylcellulose) (HPC)
[8] = dose: 50.0 mg/kg/injection, schedule: Q01DX009 (ip), vehicle: saline
[9] = dose: 100.0 mg/kg/injection, schedule: Q01DX009 (ip), vehicle: saline
[10] = dose: 200.0 mg/kg/injection, schedule: Q01DX009 (ip), vehicle: saline
[11] = dose: 100.0 mg/kg/injection, schedule: Q04DX003 (ip), vehicle: Klucel (hydroxypropylcellulose) (HPC)
[12] = dose: 200.0 mg/kg/injection, schedule: Q04DX003 (ip), vehicle: Klucel (hydroxypropylcellulose) (HPC)
[13] = dose: 400.0 mg/kg/injection, schedule: Q04DX003 (ip), vehicle: Klucel (hydroxypropylcellulose) (HPC)
[14] = dose: 25.0 mg/kg/injection, schedule: Q01DX009 (ip), vehicle: saline
[15] = dose: 50.0 mg/kg/injection, schedule: Q01DX005 (ip), vehicle: saline

With `O=C(N1CCCCC(Cl)(Cl)C1=O)C(Cl)(Cl)Cl` the T/C [1] was 106 % of control and the T/C [2] was 103 % of control.
For `COc1ccc2c(c1[N+](=O)[O-])CCCC(Br)(Br)C2=O`, the T/C [3] was 107 % of control, the T/C [4] was 107 % of control and the T/C [5] was 108 % of control.
With `Clc1cccc2nc(-c3ccccn3)n(CCc3ccccn3)c12` the T/C [6] was 96 % of control, the T/C [7] was 100 % of control and the T/C (dose: 200.0 mg/kg/injection, schedule: Q01DX005 (ip), vehicle: Klucel (hydroxypropylcellulose) (HPC)) was 100 % of control.
`CCOC(=O)C1OC1(C(F)(F)F)C(F)(F)F` (configuration not stated) was tested, and the T/C (dose: 50.0 mg/kg/injection, schedule: Q01DX009 (ip), vehicle: saline with Tween-80) was 93 % of control, the T/C (dose: 100.0 mg/kg/injection, schedule: Q01DX009 (ip), vehicle: saline with Tween-80) was 98 % of control and the T/C (dose: 200.0 mg/kg/injection, schedule: Q01DX009 (ip), vehicle: saline with Tween-80) was 104 % of control.
For `N=c1nc(-c2ccccc2)c(-c2ccccc2)nn1CC(=O)c1ccc(Br)cc1`, the T/C [6] was 111 % of control and the T/C [7] was 94 % of control.
In the case of `COc1c(Br)c2c(c(OC)c1OC)-c1ccc(OC)c(=O)cc1C(NC(C)=O)CC2` (configuration not stated), the T/C (dose: 1.56 mg/kg/injection, schedule: Q01DX009 (ip), vehicle: Klucel (hydroxypropylcellulose) (HPC)) is reported as 165 % of control and the T/C (dose: 3.12 mg/kg/injection, schedule: Q01DX009 (ip), vehicle: Klucel (hydroxypropylcellulose) (HPC)) is reported as 101 % of control and 96 % of control.
In the case of `COc1c(Cl)cccc1N=Cc1ccc(C=Nc2cccc(Cl)c2OC)cc1`, the T/C [8] is reported as 97 % of control, the T/C [9] is reported as 90 % of control and the T/C [10] is reported as 89 % of control.
In the case of `CC1=CC(=O)C(O)C2(C)C1CC1OC(=O)CC3C(C)C(O)C4(O)OCC13C42` (configuration not stated), the T/C (dose: 5.0 mg/kg/injection, schedule: Q01DX009 (ip), vehicle: Klucel (hydroxypropylcellulose) (HPC)) is reported as 107 % of control, the T/C (dose: 10.0 mg/kg/injection, schedule: Q01DX009 (ip), vehicle: Klucel (hydroxypropylcellulose) (HPC)) is reported as 117 % of control and the T/C (dose: 20.0 mg/kg/injection, schedule: Q01DX009 (ip), vehicle: Klucel (hydroxypropylcellulose) (HPC)) is reported as 123 % of control.
In the case of `COc1ccc2c(CP(=O)(O)O)cc(=O)oc2c1`, the T/C (dose: 100.0 mg/kg/injection, schedule: Q01DX001 (ip), vehicle: suspension in saline) is reported as 99 % of control, the T/C (dose: 200.0 mg/kg/injection, schedule: Q01DX001 (ip), vehicle: suspension in saline) is reported as 100 % of control and the T/C (dose: 400.0 mg/kg/injection, schedule: Q01DX001 (ip), vehicle: suspension in saline) is reported as 87 % of control.
For `CCOC(=O)c1ccc(OC)c2[nH]c3c(c(=O)c12)C(=O)c1[nH]c2c(OC)ccc(C(=O)OCC)c2c(=O)c1C3=O`, the T/C [11] was 97 % of control, the T/C [12] was 103 % of control and the T/C [13] was 100 % of control.
In the case of `COc1ccc(OC)c(NC(=O)Nc2nc(C)cs2)c1`, the T/C [3] is reported as 92 % of control, the T/C [4] is reported as 93 % of control and the T/C [5] is reported as 90 % of control.
For `Cc1ccc(O)c[n+]1[O-]`, the T/C [14] was 101 % of control, the T/C [8] was 100 % of control and 105 % of control and the T/C [9] was 102 % of control and 97 % of control. For the same molecule, the T/C [10] was 105 % of control and 117 % of control and the T/C (dose: 400.0 mg/kg/injection, schedule: Q01DX009 (ip), vehicle: saline) was 108 % of control and 109 % of control.
In the case of `NCC[Se]CC(N)C(=O)O` (configuration not stated), the T/C (dose: 6.25 mg/kg/injection, schedule: Q01DX009 (ip), vehicle: saline) is reported as 101 % of control, the T/C (dose: 12.5 mg/kg/injection, schedule: Q01DX009 (ip), vehicle: saline) is reported as 100 % of control and the T/C [14] is reported as 101 % of control.
`CC(C)c1ccc(N2C=Nc3ccc(C(C)C)cc3C2)cc1` was tested, and the T/C (dose: 50.0 mg/kg/injection, schedule: Q01DX009 (ip), vehicle: other) was 92 % of control, the T/C (dose: 100.0 mg/kg/injection, schedule: Q01DX009 (ip), vehicle: other) was 99 % of control and the T/C (dose: 200.0 mg/kg/injection, schedule: Q01DX009 (ip), vehicle: other) was 99 % of control.
In the case of `O=[N+]([O-])c1nccn1CCCO`, the T/C (dose: 12.5 mg/kg/injection, schedule: Q01DX009 (ip), vehicle: water) is reported as 98 % of control, the T/C (dose: 25.0 mg/kg/injection, schedule: Q01DX009 (ip), vehicle: water) is reported as 97 % of control and the T/C (dose: 50.0 mg/kg/injection, schedule: Q01DX009 (ip), vehicle: water) is reported as 100 % of control. The T/C (dose: 100.0 mg/kg/injection, schedule: Q01DX009 (ip), vehicle: water) was 103 % of control and the T/C (dose: 200.0 mg/kg/injection, schedule: Q01DX009 (ip), vehicle: water) was 100 % of control.
In the case of `C1CCN(c2c3c(nc4nnnn24)CCC3)CC1`, the T/C [8] is reported as 96 % of control, the T/C [9] is reported as 87 % of control and the T/C [10] is reported as 90 % of control.
For `Cc1ccc(C(=O)CC2(O)C(=O)Nc3c(Cl)cc(Cl)cc32)cc1` (configuration not stated), the T/C (dose: 60.0 mg/kg/injection, schedule: Q01DX005 (ip), vehicle: saline with Tween-80) was 103 % of control, the T/C (dose: 120.0 mg/kg/injection, schedule: Q01DX005 (ip), vehicle: saline with Tween-80) was 108 % of control and the T/C (dose: 240.0 mg/kg/injection, schedule: Q01DX005 (ip), vehicle: saline with Tween-80) was 100 % of control.
For `CC1(C)COCN1COC1CCCCC1`, the T/C [14] was 120 % of control.
With `C=Cc1c2[n-]c(c1C)/C=C1\[N-]/C(=C3\c4[n-]c(c(C)c4C(=O)C3C(=O)O)/C=c3\[n-]/c(c(C)c3CC)=C\2)C(CCC(=O)O)C1C.[Pt+4]` (configuration not stated) the T/C (dose: 50.0 mg/kg/injection, schedule: Q04DX002 (ip), vehicle: saline) was 100 % of control, the T/C (dose: 100.0 mg/kg/injection, schedule: Q04DX002 (ip), vehicle: saline) was 90 % of control and the T/C (dose: 200.0 mg/kg/injection, schedule: Q04DX002 (ip), vehicle: saline) was 88 % of control.
For `CC(C)NC(=O)OCc1c(COC(=O)NC(C)C)c(Sc2ccccc2)n2c1CCC2`, the T/C (dose: 25.0 mg/kg/injection, schedule: Q01DX005 (ip), vehicle: saline with Tween-80) was 154 % of control, the T/C [1] was 163 % of control and the T/C [2] was 110 % of control.
With `CCCC(C(=O)OC)C(=O)C(C)c1nc2n(c1O)C(=N)N=N2` (configuration not stated) the T/C [15] was 97 % of control, the T/C (dose: 100.0 mg/kg/injection, schedule: Q01DX005 (ip), vehicle: saline) was 97 % of control and the T/C (dose: 200.0 mg/kg/injection, schedule: Q01DX005 (ip), vehicle: saline) was 98 % of control.
In the case of `O=C1CSC(C2CC=CCC2)N1c1nncs1` (configuration not stated), the T/C [1] is reported as 100 % of control, the T/C [2] is reported as 91 % of control and the T/C (dose: 200.0 mg/kg/injection, schedule: Q01DX005 (ip), vehicle: saline with Tween-80) is reported as 90 % of control.
For `COc1ccc(CN2COc3c(ccc4ccccc34)C2)cc1`, the T/C [11] was 97 % of control, the T/C [12] was 96 % of control and the T/C [13] was 100 % of control.
In the case of `CCN(CC)CCSCCNc1cc(OC)cc2cccnc12`, the T/C (dose: 12.5 mg/kg/injection, schedule: Q01DX005 (ip), vehicle: saline) is reported as 101 % of control, the T/C (dose: 25.0 mg/kg/injection, schedule: Q01DX005 (ip), vehicle: saline) is reported as 101 % of control and the T/C [15] is reported as 89 % of control and 97 % of control.
For `COc1ccc2nc(C)cc(N/N=C/c3cccnc3)c2c1`, the T/C (dose: 6.25 mg/kg/injection, schedule: Q01DX009 (ip), vehicle: Klucel (hydroxypropylcellulose) (HPC)) was 101 % of control, the T/C (dose: 12.5 mg/kg/injection, schedule: Q01DX009 (ip), vehicle: Klucel (hydroxypropylcellulose) (HPC)) was 104 % of control and the T/C (dose: 25.0 mg/kg/injection, schedule: Q01DX009 (ip), vehicle: Klucel (hydroxypropylcellulose) (HPC)) was 113 % of control.
`C/C(N)=N\O` was tested, and the T/C [8] was 94 % of control, the T/C [9] was 114 % of control and the T/C [10] was 104 % of control.
In the case of `CCOC(=O)CC(=O)c1cccnc1`, the T/C (dose: 50.0 mg/kg/injection, schedule: Q04DX003 (ip), vehicle: suspension in saline) is reported as 113 % of control, the T/C (dose: 100.0 mg/kg/injection, schedule: Q04DX003 (ip), vehicle: suspension in saline) is reported as 104 % of control and the T/C (dose: 200.0 mg/kg/injection, schedule: Q04DX003 (ip), vehicle: suspension in saline) is reported as 114 % of control. For the same molecule, the T/C (dose: 400.0 mg/kg/injection, schedule: Q04DX003 (ip), vehicle: suspension in saline) was 113 % of control.
In the case of `O=c1[nH]ccc2nncn12`, the T/C (dose: 100.0 mg/kg/injection, schedule: Q01DX001 (ip), vehicle: saline with Tween-80) is reported as 100 % of control, the T/C (dose: 200.0 mg/kg/injection, schedule: Q01DX001 (ip), vehicle: saline with Tween-80) is reported as 106 % of control and the T/C (dose: 400.0 mg/kg/injection, schedule: Q01DX001 (ip), vehicle: saline with Tween-80) is reported as 99 % of control.
`CC1CCC2(C)CCC3(C)C4=CCC5C(C)(C)C(O)CCC5(C)C4CCC3(C)C2C1C` (configuration not stated) was tested, and the T/C (dose: 200.0 mg/kg/injection, schedule: Q04DX003 (ip), vehicle: other) was 95 % of control and the T/C (dose: 400.0 mg/kg/injection, schedule: Q04DX003 (ip), vehicle: other) was 100 % of control.
In the case of `COc1cc2nncc(Cl)c2cc1OC`, the T/C [6] is reported as 101 % of control.

— PubChem BioAssay AID330 (DTP/NCI, 2004)
